SMILES strings stand for the structures. Read-outs that look alike come from different tables or passages of the source.

The results in this text go back to patent US10308639B2, “Phosphatidylinositol 3-kinase inhibitors” (Gilead Sciences, Inc., priority 2014, dated 2019).

What all share (assay type): biochemical
One assay has as its target T1, PI3Kβ (Homo sapiens, UniProt P42338).
T1 construct: made in house
The assay is described as follows: TR-FRET enzymatic activity assay, PI3Kβ.

A further assay addresses T2, PI3Kδ (Homo sapiens, UniProt O00329).
T2 construct: made in house
The assay is described as follows: TR-FRET enzymatic activity assay, PI3Kδ. On the technique in general: Time-resolved FRET reads energy transfer from a long-lived donor to a nearby acceptor.

Another assay concerns the target T3, PI3Kγ (Homo sapiens, UniProt P48736).
T3 construct: made in house
Description: TR-FRET enzymatic activity assay, PI3Kγ. As to conditions: read-out: PI3Kγ IC50. A digest of the protocol: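 Compounds were profiled per isoform in a biochemical kinase reaction, with activity detected by time-resolved fluorescence resonance energy transfer.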

The mark [1] stands for this setting: Table 2, TR-FRET, 2x Km ATP, 30 minutes at 25° C.

T2 sequence (O00329 whole entry): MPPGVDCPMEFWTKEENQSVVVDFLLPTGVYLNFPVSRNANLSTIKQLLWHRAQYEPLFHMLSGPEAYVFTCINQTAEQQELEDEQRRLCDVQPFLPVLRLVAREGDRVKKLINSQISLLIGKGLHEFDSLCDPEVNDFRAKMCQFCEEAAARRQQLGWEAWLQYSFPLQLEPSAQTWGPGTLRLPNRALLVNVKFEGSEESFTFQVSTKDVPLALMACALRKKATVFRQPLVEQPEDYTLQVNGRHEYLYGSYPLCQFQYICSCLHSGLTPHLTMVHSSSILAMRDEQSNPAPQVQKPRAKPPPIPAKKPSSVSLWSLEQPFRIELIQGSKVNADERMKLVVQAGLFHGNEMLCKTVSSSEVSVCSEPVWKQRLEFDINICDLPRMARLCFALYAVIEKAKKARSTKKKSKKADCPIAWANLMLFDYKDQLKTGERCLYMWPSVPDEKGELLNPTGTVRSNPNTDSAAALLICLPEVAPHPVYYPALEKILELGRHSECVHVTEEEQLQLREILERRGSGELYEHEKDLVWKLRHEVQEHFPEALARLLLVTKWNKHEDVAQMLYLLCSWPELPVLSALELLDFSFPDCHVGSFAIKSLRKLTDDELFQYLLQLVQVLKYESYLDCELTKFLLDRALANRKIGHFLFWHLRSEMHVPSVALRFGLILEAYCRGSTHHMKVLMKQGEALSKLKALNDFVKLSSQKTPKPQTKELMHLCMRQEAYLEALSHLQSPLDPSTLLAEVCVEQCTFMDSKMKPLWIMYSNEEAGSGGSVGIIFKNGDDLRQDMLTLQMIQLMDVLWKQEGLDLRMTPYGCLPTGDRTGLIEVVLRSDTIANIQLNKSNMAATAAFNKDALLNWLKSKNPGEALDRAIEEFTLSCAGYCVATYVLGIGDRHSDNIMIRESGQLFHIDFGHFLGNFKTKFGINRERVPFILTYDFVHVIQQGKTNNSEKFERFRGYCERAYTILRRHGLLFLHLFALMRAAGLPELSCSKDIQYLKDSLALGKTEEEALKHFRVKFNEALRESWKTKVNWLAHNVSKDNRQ
T2 sequence (P27986 whole entry partner): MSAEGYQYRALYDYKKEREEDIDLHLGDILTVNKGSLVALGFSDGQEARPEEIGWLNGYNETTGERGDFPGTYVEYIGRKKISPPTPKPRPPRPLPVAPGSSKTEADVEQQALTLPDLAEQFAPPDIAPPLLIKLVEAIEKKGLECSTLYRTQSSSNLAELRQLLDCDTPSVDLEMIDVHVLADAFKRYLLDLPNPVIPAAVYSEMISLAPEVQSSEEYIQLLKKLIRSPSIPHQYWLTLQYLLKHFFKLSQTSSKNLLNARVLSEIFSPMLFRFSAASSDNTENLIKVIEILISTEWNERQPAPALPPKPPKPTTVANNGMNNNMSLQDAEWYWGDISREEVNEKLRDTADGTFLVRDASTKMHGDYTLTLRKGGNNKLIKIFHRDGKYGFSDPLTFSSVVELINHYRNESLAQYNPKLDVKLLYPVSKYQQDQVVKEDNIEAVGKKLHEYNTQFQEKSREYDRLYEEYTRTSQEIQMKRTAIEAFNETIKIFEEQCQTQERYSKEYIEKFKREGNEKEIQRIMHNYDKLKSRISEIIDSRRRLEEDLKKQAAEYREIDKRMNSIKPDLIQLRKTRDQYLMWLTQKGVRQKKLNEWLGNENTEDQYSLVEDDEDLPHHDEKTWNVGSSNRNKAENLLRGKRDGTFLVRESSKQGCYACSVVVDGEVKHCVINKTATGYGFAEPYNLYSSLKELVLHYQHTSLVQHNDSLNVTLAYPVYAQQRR
T1 sequence (P42338 whole entry): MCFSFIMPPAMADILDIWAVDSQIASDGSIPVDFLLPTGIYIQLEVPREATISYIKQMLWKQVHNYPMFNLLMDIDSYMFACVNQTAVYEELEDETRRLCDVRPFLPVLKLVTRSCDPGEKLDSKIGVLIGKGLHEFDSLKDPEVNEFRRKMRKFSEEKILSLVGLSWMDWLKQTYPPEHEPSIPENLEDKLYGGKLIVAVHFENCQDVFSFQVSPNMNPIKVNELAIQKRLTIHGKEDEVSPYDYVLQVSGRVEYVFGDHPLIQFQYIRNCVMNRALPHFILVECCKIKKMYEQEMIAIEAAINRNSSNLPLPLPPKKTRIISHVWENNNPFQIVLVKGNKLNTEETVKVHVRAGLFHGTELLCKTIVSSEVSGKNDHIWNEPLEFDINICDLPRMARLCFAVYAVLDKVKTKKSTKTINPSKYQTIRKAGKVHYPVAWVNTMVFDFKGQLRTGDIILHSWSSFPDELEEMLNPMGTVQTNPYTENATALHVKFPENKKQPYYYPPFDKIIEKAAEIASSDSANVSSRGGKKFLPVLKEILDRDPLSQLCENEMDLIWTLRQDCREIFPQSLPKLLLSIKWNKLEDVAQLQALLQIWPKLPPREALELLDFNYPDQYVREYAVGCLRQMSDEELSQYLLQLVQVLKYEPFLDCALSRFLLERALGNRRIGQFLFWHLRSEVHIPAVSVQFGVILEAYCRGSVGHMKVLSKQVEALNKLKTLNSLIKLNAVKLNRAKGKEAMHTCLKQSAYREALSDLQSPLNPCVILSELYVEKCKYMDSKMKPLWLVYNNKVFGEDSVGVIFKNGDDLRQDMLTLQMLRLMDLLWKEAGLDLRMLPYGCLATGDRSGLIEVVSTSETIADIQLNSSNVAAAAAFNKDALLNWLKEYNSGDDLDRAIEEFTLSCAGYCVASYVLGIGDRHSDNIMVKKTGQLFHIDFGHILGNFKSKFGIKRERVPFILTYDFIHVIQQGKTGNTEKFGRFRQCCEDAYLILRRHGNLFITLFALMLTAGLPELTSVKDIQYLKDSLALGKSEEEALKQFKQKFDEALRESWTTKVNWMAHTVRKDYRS
T1 sequence (P27986 whole entry partner): as the sequence (P27986 whole entry partner) above
T3 sequence (P48736 whole entry): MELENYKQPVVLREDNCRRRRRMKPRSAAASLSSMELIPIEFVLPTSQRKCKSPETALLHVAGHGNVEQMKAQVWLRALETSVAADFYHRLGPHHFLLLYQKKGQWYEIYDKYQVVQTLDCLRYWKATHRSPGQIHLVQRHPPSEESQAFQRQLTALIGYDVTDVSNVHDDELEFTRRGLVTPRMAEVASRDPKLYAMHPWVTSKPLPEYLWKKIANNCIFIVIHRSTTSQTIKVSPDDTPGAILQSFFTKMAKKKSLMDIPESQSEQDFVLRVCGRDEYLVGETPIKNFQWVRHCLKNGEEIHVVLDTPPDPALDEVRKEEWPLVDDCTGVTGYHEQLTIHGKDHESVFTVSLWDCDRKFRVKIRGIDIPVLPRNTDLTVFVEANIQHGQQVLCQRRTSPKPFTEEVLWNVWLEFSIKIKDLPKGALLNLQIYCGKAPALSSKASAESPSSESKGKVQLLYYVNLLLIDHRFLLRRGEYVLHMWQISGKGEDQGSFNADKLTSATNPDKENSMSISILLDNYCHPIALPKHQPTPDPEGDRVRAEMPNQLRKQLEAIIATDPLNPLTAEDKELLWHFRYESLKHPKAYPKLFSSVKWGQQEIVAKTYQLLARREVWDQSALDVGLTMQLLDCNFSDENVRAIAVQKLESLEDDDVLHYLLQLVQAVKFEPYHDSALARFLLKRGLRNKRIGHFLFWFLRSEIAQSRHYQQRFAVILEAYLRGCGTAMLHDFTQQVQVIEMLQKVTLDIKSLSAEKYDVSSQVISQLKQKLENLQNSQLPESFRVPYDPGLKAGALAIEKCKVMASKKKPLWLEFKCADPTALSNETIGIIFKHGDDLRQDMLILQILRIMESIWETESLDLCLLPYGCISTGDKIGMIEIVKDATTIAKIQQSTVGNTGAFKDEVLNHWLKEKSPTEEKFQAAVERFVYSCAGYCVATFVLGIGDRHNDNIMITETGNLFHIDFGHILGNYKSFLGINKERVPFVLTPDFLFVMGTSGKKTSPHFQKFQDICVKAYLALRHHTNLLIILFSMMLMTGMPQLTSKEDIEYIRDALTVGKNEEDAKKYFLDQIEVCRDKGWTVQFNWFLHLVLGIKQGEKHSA

As a reminder, the IC50 is the point on the concentration scale where inhibition reaches its midpoint. For the compound `C[C@H](Nc1nc(N)nc(N)c1C#N)c1nc2ccc(F)c(Cl)c2c(=O)n1-c1cc[nH]n1` [Compound 260, (S)-2,4-diamino-6-((1-(5-chloro-6-fluoro-4-oxo-3-(1H-pyrazol-3-yl)-3,4-dihydroquinazolin-2-yl)ethyl)amino)pyrimidine-5-carbonitrile], the IC50 at PI3Kβ (Table 2a, same assay) came out at 2 nM; on PI3Kδ (Table 2a, same assay), 0.7 nM; at PI3Kγ (Table 2a, same assay) it was 220 nM.

Turning to `C[C@H](Nc1nc(N)nc(C(F)F)c1C#N)c1nc2c(Cl)ccc(Cl)c2c(=O)n1-c1cc[nH]n1` [Compound 190, (S)-2-amino-4-((1-(5,8-dichloro-4-oxo-3-(1H-pyrazol-3-yl)-3,4-dihydroquinazolin-2-yl)ethyl)amino)-6-(difluoromethyl)pyrimidine-5-carbonitrile], the IC50 on PI3Kβ (Table 2a, same assay) stood at 31 nM; against PI3Kδ (Table 2a, same assay), 8 nM; at PI3Kγ (Table 2a, same assay), 9900 nM.

As to `C[C@H](Nc1nc(N)nc(N)c1Cl)c1nc2cccc(Cl)c2c(=O)n1-c1cc(Cl)[nH]n1` [Compound 154, (S)-5-chloro-3-(5-chloro-1H-pyrazol-3-yl)-2-(1-((2,6-diamino-5-chloropyrimidin-4-yl)amino)ethyl)quinazolin-4(3H)-one], the IC50 was determined as 100 nM on PI3Kβ (Table 2a, same assay); 13 nM on PI3Kδ (Table 2a, same assay); 3300 nM at PI3Kγ (Table 2a, same assay).

Consider `C[C@H](Nc1nc(N)nc(N)c1C#N)c1nc2c(Cl)cc(F)cc2c(=O)n1-c1cc[nH]n1` [Compound 279, (S)-2,4-diamino-6-((1-(8-chloro-6-fluoro-4-oxo-3-(1H-pyrazol-3-yl)-3,4-dihydroquinazolin-2-yl)ethyl)amino)pyrimidine-5-carbonitrile], for which the IC50 came out at 1 nM against PI3Kβ (Table 2a, same assay); 0.2 nM against PI3Kδ (Table 2a, same assay); 710 nM on PI3Kγ (Table 2a, same assay).

Take `N#Cc1c(N)nc(N)nc1N[C@H](c1nc2c(F)cc(F)cc2c(=O)n1-c1cc[nH]n1)C1CC1` [Compound 170, (S)-2,4-diamino-6-((cyclopropyl(6,8-difluoro-4-oxo-3-(1H-pyrazol-3-yl)-3,4-dihydroquinazolin-2-yl)methyl)amino)pyrimidine-5-carbonitrile]: the IC50 came to 3 nM at PI3Kβ (Table 2a, same assay); 1 nM on PI3Kδ (Table 2a, same assay); 436 nM at PI3Kγ (Table 2a, same assay).

As for `C[C@H](Nc1nc(N)nc(C(F)F)c1C#N)c1nc2cccc(Cl)c2c(=O)n1-c1cc[nH]n1` [Compound 166, (S)-2-amino-4-((1-(5-chloro-4-oxo-3-(1H-pyrazol-3-yl)-3,4-dihydroquinazolin-2-yl)ethyl)amino)-6-(difluoromethyl)pyrimidine-5-carbonitrile], the IC50 against PI3Kβ (Table 2a, same assay) turned out to be 16 nM; on PI3Kδ (Table 2a, same assay) it was 8 nM; at PI3Kγ (Table 2a, same assay), 680 nM.

For the compound `CC[C@H](Nc1nc(N)nc(N)c1C#N)c1nc2c(Cl)cc(F)cc2c(=O)n1-c1cc[nH]n1` [Compound 258, (S)-2,4-diamino-6-((1-(8-chloro-6-fluoro-4-oxo-3-(1H-pyrazol-3-yl)-3,4-dihydroquinazolin-2-yl)propyl)amino)pyrimidine-5-carbonitrile], the 50% inhibitory concentration (IC50) at PI3Kβ (Table 2a, same assay) worked out at 7 nM; on PI3Kδ (Table 2a, same assay), 3 nM; at PI3Kγ (Table 2a, same assay), 3900 nM.

On to `Nc1nc(N)c(Cl)c(N[C@H](c2nc3cc(F)cc(Cl)c3c(=O)n2-c2cc[nH]n2)C2CC2)n1` [Compound 240, (S)-5-chloro-2-(cyclopropyl((2,6-diamino-5-chloropyrimidin-4-yl)amino)methyl)-7-fluoro-3-(1H-pyrazol-3-yl)quinazolin-4(3H)-one], for which the IC50 was 99 nM on PI3Kβ (Table 2a, same assay); 42 nM against PI3Kδ (Table 2a, same assay); over 10000 nM on PI3Kγ (Table 2a, same assay).

For `C[C@H](Nc1nc(N)nc(N)c1C#N)c1nc2c(Cl)ccc(C(F)F)c2c(=O)n1-c1cc[nH]n1` [Compound 228, (S)-2,4-diamino-6-((1-(8-chloro-5-(difluoromethyl)-4-oxo-3-(1H-pyrazol-3-yl)-3,4-dihydroquinazolin-2-yl)ethyl)amino)pyrimidine-5-carbonitrile], the concentration for half-maximal inhibition (IC50) against PI3Kβ (Table 2a, same assay) stood at 1 nM; at PI3Kδ (Table 2a, same assay), 0.6 nM; on PI3Kγ (Table 2a, same assay), 870 nM.

In the case of `Cc1ccc(Cl)c2nc([C@H](C)Nc3nc(N)nc(C(F)F)c3C#N)n(-c3cc[nH]n3)c(=O)c12` [Compound 224, (S)-2-amino-4-((1-(8-chloro-5-methyl-4-oxo-3-(1H-pyrazol-3-yl)-3,4-dihydroquinazolin-2-yl)ethyl)amino)-6-(difluoromethyl)pyrimidine-5-carbonitrile], the IC50 against PI3Kβ (Table 2a, same assay) was found to be 5 nM; against PI3Kδ (Table 2a, same assay), 2 nM; at PI3Kγ (Table 2a, same assay) it was 2100 nM.

Consider `C[C@H](Nc1nc(N)nc(N)c1C#N)c1nc2c(C#N)cc(F)cc2c(=O)n1-c1cc[nH]n1` [Compound 272, (S)-2-(1-((2,6-diamino-5-cyanopyrimidin-4-yl)amino)ethyl)-6-fluoro-4-oxo-3-(1H-pyrazol-3-yl)-3,4-dihydroquinazoline-8-carbonitrile], for which the IC50 against PI3Kβ (Table 2a, same assay) is 1 nM; on PI3Kδ (Table 2a, same assay), 0.9 nM; on PI3Kγ (Table 2a, same assay), 2700 nM.

As to `CC[C@H](Nc1nc(N)nc(N)c1C#N)c1nc2c(C)cccc2c(=O)n1-c1cn[nH]c1` [Compound 33, (S)-2,4-diamino-6-((1-(8-methyl-4-oxo-3-(1H-pyrazol-4-yl)-3,4-dihydroquinazolin-2-yl)propyl)amino)pyrimidine-5-carbonitrile], the half-maximal inhibitory concentration (IC50) was 84 nM on PI3Kβ (setting [1]), 22 nM at PI3Kδ (setting [1]) and 2000 nM on PI3Kγ (setting [1]).

Turning to `Nc1nc(N)c(Cl)c(N[C@H](c2nc3cccc(C(F)F)c3c(=O)n2-c2cc[nH]n2)C2CC2)n1` [Compound 215, (S)-2-(cyclopropyl((2,6-diamino-5-chloropyrimidin-4-yl)amino)methyl)-5-(difluoromethyl)-3-(1H-pyrazol-3-yl)quinazolin-4(3H)-one], the IC50 on PI3Kβ (Table 2a, same assay) is 10 nM; on PI3Kδ (Table 2a, same assay) it was 6 nM; at PI3Kγ (Table 2a, same assay) it was 2700 nM.

Turning to `C[C@H](Nc1ncnc2scc(Br)c12)c1nc2cccc(Cl)c2c(=O)n1-c1cc[nH]n1` [Compound 150, (S)-2-(1-((5-bromothieno[2,3-d]pyrimidin-4-yl)amino)ethyl)-5-chloro-3-(1H-pyrazol-3-yl)quinazolin-4(3H)-one], the IC50 against PI3Kβ (Table 2a, same assay) worked out at 6 nM; against PI3Kδ (Table 2a, same assay), 2 nM; on PI3Kγ (Table 2a, same assay), 3000 nM.

As to `Cc1c[nH]nc1-n1c([C@@H](Nc2nc(N)nc(C)c2C#N)C2CC2)nc2c(C#N)cccc2c1=O` [Compound 203, (S)-2-(((2-amino-5-cyano-6-methylpyrimidin-4-yl)amino)(cyclopropyl)methyl)-3-(4-methyl-1H-pyrazol-3-yl)-4-oxo-3,4-dihydroquinazoline-8-carbonitrile], the 50% inhibitory concentration (IC50) is 37 nM against PI3Kβ (Table 2a, same assay); 5 nM against PI3Kδ (Table 2a, same assay); over 10000 nM on PI3Kγ (Table 2a, same assay).

As for `CC[C@H](Nc1nc(N)nc(N)c1C#N)c1nc2c(C)ccc(F)c2c(=O)n1-c1cc[nH]n1` [Compound 36, (S)-2,4-diamino-6-((1-(5-fluoro-8-methyl-4-oxo-3-(1H-pyrazol-3-yl)-3,4-dihydroquinazolin-2-yl)propyl)amino)pyrimidine-5-carbonitrile], the IC50 against PI3Kβ (setting [1]) amounted to 2 nM; against PI3Kδ (setting [1]) it was 5 nM; at PI3Kγ (setting [1]) it was 4100 nM.

As to `CCC[C@H](Nc1nc(N)nc(N)c1Cl)c1nc2ccc(F)c(Cl)c2c(=O)n1-c1cc[nH]n1` [Compound 267, (S)-5-chloro-2-(1-((2,6-diamino-5-chloropyrimidin-4-yl)amino)butyl)-6-fluoro-3-(1H-pyrazol-3-yl)quinazolin-4(3H)-one], the IC50 is 120 nM against PI3Kβ (Table 2a, same assay); 27 nM at PI3Kδ (Table 2a, same assay); over 10000 nM on PI3Kγ (Table 2a, same assay).
